Test results taken from patent US10647675B2 (priority 2015, dated 2020).
≈ marks a conversion by molar mass, not a printed value.

Assays:
[1] = tested on: Trichophyton mentagrophytes SM-110; assay: Antifungal activity evaluation test: minimum inhibitory concentration (MIC), broth dilution by reference to CLSI M38-A2; type: cell-based; conditions: SM110, read-out: MIC (T. menta.)
Description: (§1) The minimum inhibitory concentration (MIC) for Trichophyton mentagrophytes and Trichophyton rubrum was measured by the following procedure by reference to Clinical and Laboratory standards Institute (CLSI) guidelines M38-A2. Reference document for the measurement method: National Committee for a Clinical Laboratory Standards. Reference method for broth dilution antifungal susceptibility testing of filamentous fungi. Approved standard Second edition M38-A2. Wayne, Pa.: National Committee for a Clinical Laboratory Standards, 2008. • Test compound solution: A test compound was dissolved in dimethyl sulfoxide (DMSO) at a concentration of 2.5 mg/mL to give a stock solution. The stock solution was appropriately diluted with DMSO to prepare a 2-fold dilution series. As control compounds, terbinafine and amorolfine were used. • Test strains: Trichophyton mentagrophytes SM-110 and Trichophyton rubrum KD-1130 were used. • Preparation of fungal culture to be inoculated: The above-mentioned test strain was suspended in 0.05% Tween 80-containing saline, and the fungi of the genus Trichophyton were prepared to a fungal concentration of 1×10^6 cells/mL by using a hemocytometer. Then, using MOPS-buffered RPMI 1640 medium (pH 7.0) as a test medium, a fungal culture of the fungi of the genus Trichophyton was diluted 250-fold (4×10^3 cells/mL) to give a fungal culture for inoculation. • MIC measurement of genus Trichophyton fungi: MOPS-buffered RPMI 1640 medium (pH 7.0) was dispensed by 100 μL to given wells of a 96 well U-bottom microplate. Then, the test compound solution (2 μL) was added, the mixture was sufficiently stirred by a plate mixer. The fungal culture (100 μL) was inoculated and the mixture was cultured at 35° C. for 4 days (final fungal concentration: 2×10^3 cells/mL). After the culture, the minimum drug concentration of a well in which a growth inhibitory action of not less than 80% was visually observed as compared to a growth control was taken as a minimum inhibitory concentration (MIC: μg/mL).
(§2) The abbreviations in the Tables mean the following fungi and compounds. • T. menta.: Trichophyton mentagrophytes • T. rubrum: Trichophyton rubrum • TBF: terbinafine • AMF: amorolfine

[2] = tested on: Trichophyton rubrum KD-1130; assay: as above; type: cell-based; conditions: KD1130, read-out: MIC (T. rubrum)
Description: as §1, §2

SMILES	MIC [1]	MIC [2]
COCc1ccc(Oc2ncccc2-c2cnccc2OC)cc1 [I-251, 4′-methoxy-2-[4-(methoxymethyl)phenoxy]-3,3′-bipyridine]	1.56 to 6.25 µg/mL (≈ 4.84 to 19.4 µM)	1.56 to 6.25 µg/mL (≈ 4.84 to 19.4 µM)
CC(=O)CC(=O)c1ccc(Oc2ncccc2-c2cnccc2C)cc1 [I-424]	0.2 to 0.78 µg/mL (≈ 0.577 to 2.25 µM)	≤ 0.1 µg/mL
COc1ccncc1-c1cccnc1Oc1ccc(C#N)cc1 [I-243, 4-{[4′-methoxy-(3,3′-bipyridin)-2-yl]oxy}benzonitrile]	0.2 to 0.78 µg/mL (≈ 0.659 to 2.57 µM)	0.2 to 0.78 µg/mL (≈ 0.659 to 2.57 µM)
COc1ccccc1-c1cccnc1Oc1ccc(C(F)F)c(C)c1 [I-455]	≤ 0.1 µg/mL	≤ 0.1 µg/mL
COc1ncccc1-c1cccnc1Oc1ccc(OCc2ccccc2)cc1 [I-277, 2-[4-(benzyloxy)phenoxy]-2′-methoxy-3,3′-bipyridine]	≤ 0.1 µg/mL	≤ 0.1 µg/mL
C=C(C)c1ncc(Oc2ncccc2-c2ccc(F)cc2OC)cn1 [I-378, 5-{[3-(4-fluoro-2-methoxyphenyl)pyridin-2-yl]oxy}-2-(prop-1-en-2-yl)pyrimidine]	≤ 0.1 µg/mL	≤ 0.1 µg/mL
CCCN(C)c1ncc(Oc2ncccc2-c2cccc3c2OCC3)cn1 [I-449]	≤ 0.1 µg/mL	≤ 0.1 µg/mL
CCc1ccc(Oc2ncccc2-c2cnccc2OC)cc1 [I-253, 2-(4-ethylphenoxy)-4′-methoxy-3,3′-bipyridine]	≤ 0.1 µg/mL	≤ 0.1 µg/mL
COc1ccncc1-c1cccnc1Oc1ccc(C2CC2)cc1 [I-261, 2-(4-cyclopropylphenoxy)-4′-methoxy-3,3′-bipyridine]	≤ 0.1 µg/mL	≤ 0.1 µg/mL
COc1ccccc1-c1cccnc1Oc1ccc(COc2ccccc2)nc1 [I-175, 3-(2-methoxyphenyl)-2-{[6-(phenoxymethyl)pyridin-3-yl]oxy}pyridine]	0.2 to 0.78 µg/mL (≈ 0.52 to 2.03 µM)	0.2 to 0.78 µg/mL (≈ 0.52 to 2.03 µM)
CCOC(=O)c1ccc(Oc2ncccc2-c2cnccc2CC)cc1 [I-416]	≤ 0.1 µg/mL	≤ 0.1 µg/mL
c1cc(-c2cncnc2Oc2ccc3c(c2)CCC3)n2nccc2c1 [I-326, 7-{4-[(2,3-dihydro-1H-inden-5-yl)oxy]pyrimidin-5-yl}pyrazolo[1,5-a]pyridine]	≤ 0.1 µg/mL	≤ 0.1 µg/mL
FC(F)c1ccc(Oc2ncncc2-c2cccc3ccnn23)cc1 [I-358, 7-{4-[4-(difluoromethyl)phenoxy]pyrimidin-5-yl)pyrazolo[1,5-a]-pyridine]	≤ 0.1 µg/mL	≤ 0.1 µg/mL
COc1ccccc1-c1cccnc1Oc1cnc2c(c1)CCCC2OC(C)=O (centres unmarked) [I-139, 3-{[3-(2-methoxyphenyl)pyridin-2-yl]oxy}-5,6,7,8-tetrahydroquinolin-8-yl acetate]	1.56 to 6.25 µg/mL	1.56 to 6.25 µg/mL
Cc1ccncc1-c1cccnc1Oc1ccc(-c2ncccn2)cc1 [I-429]	≤ 0.1 µg/mL	≤ 0.1 µg/mL
COc1ccncc1-c1cccnc1Oc1ccc(C(C)=O)cc1 [I-244]	1.56 to 6.25 µg/mL (≈ 4.87 to 19.5 µM)	1.56 to 6.25 µg/mL (≈ 4.87 to 19.5 µM)
COc1cc(F)ccc1-c1cccnc1Oc1cnc(N(C)C)c(C)c1 [I-369]	≤ 0.1 µg/mL	≤ 0.1 µg/mL
COc1ccncc1-c1cccnc1Oc1ccc(OC(F)F)cc1 [I-238, 2-[4-(difluoromethoxy)phenoxy]-4′-methoxy-3,3′-bipyridine]	0.2 to 0.78 µg/mL (≈ 0.581 to 2.27 µM)	0.2 to 0.78 µg/mL (≈ 0.581 to 2.27 µM)
COc1ccncc1-c1cccnc1Oc1ccc(F)cc1 [I-236, 2-(4-fluorophenoxy)-4′-methoxy-3,3′-bipyridine]	1.56 to 6.25 µg/mL (≈ 5.26 to 21.1 µM)	1.56 to 6.25 µg/mL (≈ 5.26 to 21.1 µM)
CCc1ccc(Oc2ncccc2-c2cncc(F)c2OC)cc1 [I-283, 2-(4-ethylphenoxy)-5′-fluoro-4′-methoxy-3,3′-bipyridine]	≤ 0.1 µg/mL	≤ 0.1 µg/mL
COc1cc(F)ccc1-c1cccnc1Oc1cnc(C(F)(F)F)c(C)c1 [I-118, 5-{[3-(4-fluoro-2-methoxyphenyl)pyridin-2-yl]oxy}-3-methyl-2-(trifluoromethyl)pyridine]	≤ 0.1 µg/mL	≤ 0.1 µg/mL
COc1ccncc1-c1cccnc1Oc1ccc(S(F)(F)(F)(F)F)cc1 [I-240, 4′-methoxy-2-[4-(pentafluorosulfanyl)phenoxy]-3,3′-bipyridine]	≤ 0.1 µg/mL	≤ 0.1 µg/mL

More lines, now with the values ahead:

MIC [1]	MIC [2]	SMILES
0.2 to 0.78 µg/mL (≈ 0.579 to 2.26 µM)	0.2 to 0.78 µg/mL (≈ 0.579 to 2.26 µM)	Cc1c(F)cncc1-c1cccnc1Oc1ccc(C(C)(F)F)nc1 [I-99, 2-{[6-(1,1-difluoroethyl)pyridin-3-yl]oxy}-5′-fluoro-4′-methyl-3,3′-bipyridine]
0.2 to 0.78 µg/mL (≈ 0.544 to 2.12 µM)	0.2 to 0.78 µg/mL (≈ 0.544 to 2.12 µM)	FC(F)(F)c1ccc(Oc2ncccc2-c2cccc3ccncc23)cn1 [I-43, 8-(2-{[6-(trifluoromethyl)pyridin-3-yl]oxy}pyridin-3-yl)-isoquinoline]
0.2 to 0.78 µg/mL (≈ 0.518 to 2.02 µM)	0.2 to 0.78 µg/mL (≈ 0.518 to 2.02 µM)	FC(F)(F)c1ccc(Oc2ncccc2-c2ccccc2OCC2CC2)cn1 [I-57, 3-[2-(cyclopropylmethoxy)phenyl]-2-{[6-(trifluoromethyl)pyridin-3-yl]oxy}pryidine]
0.2 to 0.78 µg/mL (≈ 0.484 to 1.89 µM)	0.2 to 0.78 µg/mL (≈ 0.484 to 1.89 µM)	COc1ccccc1-c1cccnc1Oc1ccc(C(F)(F)CN(C)C(C)=O)nc1 [I-151, N-[2,2-difluoro-2-(5-{[3-(2-methoxyphenyl)pyridin-2-yl]oxy}-2-yl)-ethyl]-N-methylacetamide]
1.56 to 6.25 µg/mL (≈ 5.34 to 21.4 µM)	1.56 to 6.25 µg/mL (≈ 5.34 to 21.4 µM)	COc1ccccc1-c1cccnc1Oc1ccc(C)nc1 [I-68]
≤ 0.1 µg/mL	≤ 0.1 µg/mL	COc1ccccc1-c1cccnc1Oc1ccc(C(F)(F)F)nc1 [I-1, 3-(2-methoxyphenyl)-2-{[6-(trifluoromethyl)pyridin-3-yl]oxy}pyridine]
≤ 0.1 µg/mL	≤ 0.1 µg/mL	FC(F)(F)c1ccc(Oc2ncccc2-c2cccc3cc(Cl)nn23)cn1 [I-375, 2-chloro-7-(2-{[6-(trifluoromethyl)pyridin-3-yl]oxy}pyridin-3-yl)pyrazolo[1,5-a]pyridine]
≤ 0.1 µg/mL	≤ 0.1 µg/mL	COCC(F)(F)c1ccc(Oc2ncccc2-c2cccc3ccnn23)cc1 [I-413, 7-{2-[4-(1,1-difluoro-2-methoxyethyl)phenoxy]pyridin-3-yl}pyrazolo[1,5-a]pyridine]
≤ 0.1 µg/mL	≤ 0.1 µg/mL	COc1nccnc1-c1cccnc1Oc1ccc(C(F)(F)F)cc1 [I-218, 2-methoxy-3-{2-[4-(trifluoromethyl)phenoxy]pyridin-3-yl}pyrazine]
0.2 to 0.78 µg/mL (≈ 0.561 to 2.19 µM)	0.2 to 0.78 µg/mL (≈ 0.561 to 2.19 µM)	FC(F)(F)c1ccc(Oc2ncccc2-c2cccc3ncnn23)cc1 [I-230, 5-{2-[4-(trifluoromethyl)phenoxy]pyridin-3-yl}[1,2,4]triazolo[1,5-a]pyridine]
≤ 0.1 µg/mL	≤ 0.1 µg/mL	COc1ncc(Cl)cc1-c1cccnc1Oc1ccc(C(F)(F)F)nc1 [I-31, 5-chloro-2-methoxy-2′-{[6-(trifluoromethyl)pyridin-3-yl]oxy}-3,3′-bipyridine]
0.2 to 0.78 µg/mL (≈ 0.536 to 2.09 µM)	0.2 to 0.78 µg/mL (≈ 0.536 to 2.09 µM)	COCC(F)(F)c1ccc(Oc2ncccc2-c2cccnc2OC)cn1 [I-348, 2-{[6-(1,1-difluoro-2-methoxyethyl)pyridin-3-yl]oxy}-2′-methoxy-3,3′-bipyridine]
≤ 0.1 µg/mL	≤ 0.1 µg/mL	COc1ncccc1-c1cccnc1Oc1ccc(C(F)(F)F)cc1 [I-202, 2-methoxy-2′-[4-(trifluoromethyl)phenoxy]-3,3′-bipyridine]
0.2 to 0.78 µg/mL (≈ 0.561 to 2.19 µM)	0.2 to 0.78 µg/mL (≈ 0.561 to 2.19 µM)	FC(F)(F)c1ccc(Oc2ncccc2-n2ccc3cccnc32)cn1 [I-50, 1-(2-{[6-(trifluoromethyl)pyridin-3-yl]oxy}pyridin-3-yl)-1H-pyrrolo[2,3-b]pryidine]
≤ 0.1 µg/mL	≤ 0.1 µg/mL	COc1ncccc1-c1cncnc1Oc1ccc(C(F)(F)F)cc1 [I-330, 5-(2-methoxypyridin-3-yl)-4-[4-(trifluoromethyl)phenoxy]pyrimidine]
≤ 0.1 µg/mL	≤ 0.1 µg/mL	COc1ccccc1-c1cccnc1Oc1ccc(C(F)(F)F)cc1 [I-201, 3-(2-methoxyphenyl)-2-[4-(trifluoromethyl)phenoxy]pyridine]
0.2 to 0.78 µg/mL (≈ 0.563 to 2.2 µM)	0.2 to 0.78 µg/mL (≈ 0.563 to 2.2 µM)	CC(F)(F)c1ccc(Oc2ncccc2-c2cccc(F)c2C#N)cn1 [I-87, 2-(2-{[6-(1,1-difluoroethyl)pyridin-3-yl]oxy}pyridin-3-yl)-6-fluorobenzonitrile]
0.2 to 0.78 µg/mL (≈ 0.554 to 2.16 µM)	0.2 to 0.78 µg/mL (≈ 0.554 to 2.16 µM)	O=[N+]([O-])c1ccccc1-c1cccnc1Oc1ccc(C(F)(F)F)nc1 [I-15, 3-(2-nitrophenyl)-2-{[6-(trifluoromethyl)pyridin-3-yl]oxy}pyridine]
≤ 0.1 µg/mL	≤ 0.1 µg/mL	COc1ncccc1-c1cccnc1Oc1ccc(C(C)(F)F)nc1 [I-88, 2-{[6-(1,1-difluoroethyl)pyridin-3-yl]oxy}-2′-methoxy-3,3′-bipyridine]
0.2 to 0.78 µg/mL (≈ 0.552 to 2.15 µM)	0.2 to 0.78 µg/mL (≈ 0.552 to 2.15 µM)	COc1ncccc1-c1cccnc1Sc1ccc(C(F)(F)F)cc1 [I-435]
≤ 0.1 µg/mL	≤ 0.1 µg/mL	FC(F)(F)c1ccc(Oc2ncccc2-c2ccccc2Cl)cn1 [I-4, 3-(2-chlorophenyl)-2-{[6-(trifluoromethyl)pyridin-3-yl]oxy}pyridine]
